Source: patent publication US20210238224A1, “METHOD OF CONSTRUCTING PROTAC BY USING DOUBLE TARGETS” (THE FIRST AFFILIATED HOSPITAL OF SUN YAT-SEN UNIVERSITY, priority 2018, published 2021)

Molecular target: T1, Smad3 (Rattus norvegicus, UniProt P84025)
T1 construct: endogenous in cells; host or cells: NRK49F rat kidney fibroblasts, stimulated with TGF-β1
Experiment: Western blot of Smad3 degradation in TGF-β1-stimulated rat kidney fibroblasts
Assay type: cell-based
Details: NRK49F cells, 48 hours, FIGS. 6(A), 6(B)
Method: Rat kidney fibroblasts (NRK49F cell line) are cultured in vitro, passage 1:3 or 1:4 to six-well plates before cell fusion, and are divided into a TGF-β1 control group (TGF-β1 10 ng/ml), a PROTAC-PEG action group (TGF-β1 10 ng/ml+PROTAC-PEG of different concentrations: 1, 5, 25, 125 nM), and a PROTAC-butanedioic acid action group (TGF-β1 10 ng/ml+PROTAC-butanedioic acid of different concentrations: 1, 5, 25, 125 nM); the cells are lysed after 48 hours of culture and are used for Western blot.

T1 sequence (P84025 whole entry): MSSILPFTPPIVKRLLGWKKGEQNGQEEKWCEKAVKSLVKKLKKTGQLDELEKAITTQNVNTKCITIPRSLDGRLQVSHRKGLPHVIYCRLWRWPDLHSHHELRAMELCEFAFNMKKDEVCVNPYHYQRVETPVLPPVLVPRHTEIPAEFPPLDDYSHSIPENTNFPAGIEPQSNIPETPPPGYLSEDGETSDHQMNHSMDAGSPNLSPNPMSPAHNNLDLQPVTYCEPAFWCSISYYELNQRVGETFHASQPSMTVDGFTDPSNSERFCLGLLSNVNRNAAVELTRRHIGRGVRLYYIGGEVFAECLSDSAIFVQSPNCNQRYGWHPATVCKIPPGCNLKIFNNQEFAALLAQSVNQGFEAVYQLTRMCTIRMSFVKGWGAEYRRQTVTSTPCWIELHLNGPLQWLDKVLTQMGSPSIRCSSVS

With `C[C@@H](NC(=O)[C@@H]1C[C@@H](O)CN1C(=O)[C@@H](NC(=O)CCC(=O)NC(c1cccnc1)c1cc2ccccc2o1)C(C)(C)C)c1ccc(-c2cc(N)cs2)cc1` (stereo partly drawn) [PROTAC-butanedioic acid] the “degradation of target protein Smad3 (Western blot)” value (TGF-β1 10 ng/ml + PROTAC 1, 5, 25, 125 nM) was “degrades the target protein Smad3 in a concentration-dependent manner”, the “Smad3-degrading activity compared with PROTAC-PEG” value (TGF-β1 10 ng/ml) was “significantly higher than that of PROTAC-PEG” and the “effective concentration for Smad3 degradation” value (TGF-β1 10 ng/ml) was 25 nM.
